Experimental data reported in patent US6872721B2, “Derivatives of 2,3,6,7,12,12a-hexahydropyrazino-[1′,2′:1,6]pyrido[3,4b]-indole-1,4-dione” (Lilly ICOS LLC, priority 2000, dated 2005).

How the values were obtained:
human recombinant-PDE5 = human recombinant-PDE5 (Homo sapiens, UniProt O76074); test: Inhibitory effect on cGMP-PDE (PDE5 IC50, one-step assay); assay type: biochemical; conditions: in vitro, 0.15 μM 8-[H3]-cGMP, 30 min incubation
Procedure: The compounds of structural formula (I) were tested for an ability to inhibit PDE5. The ability of a compound to inhibit PDE5 activity is related to the IC50 value for the compound, i.e., the concentration of inhibitor required for 50% inhibition of enzyme activity. The IC50 value for compounds of structural formula (I) were determined using recombinant human PDE5.
cGMP-PDE activity of compounds of the present invention was measured using a one-step assay adapted from Wells et al., Biochim. Biophys. Acta, 384, 430 (1975). The reaction medium contained 50 mM Tris-HCl, pH 7.5, 5 mM magnesium acetate, 250 μg/ml 5′-Nucleotidase, 1 mM EGTA, and 0.15 μM 8-[H^3]-cGMP. Unless otherwise indicated, the enzyme used was a human recombinant-PDE5 (ICOS Corp., Bothell, Wash.).
Compounds of the invention were dissolved in DMSO finally present at 2% in the assay.

Row | IC50 (human recombinant-PDE5) [nM] | melting point [°C] | Compound
1 | 48.1 | 322 to 328 | CN1CC(=O)N2[C@H](c3ccc4c(c3)OCO4)c3[nH]c4ccc(O)cc4c3C[C@@H]2C1=O (racemic) [Example 1, (+/−, cis)-6-Benzo[1,3]dioxol-5-yl-10-hydroxy-2-methyl-2,3,6,7,12,12a-hexahydropyrazino[1′,2′:1,6)pyrido[3,4-b]indole-1,4-dione]
2 | 402 | 259 to 261 | COc1ccc2[nH]c3c(c2c1)C[C@@H]1C(=O)N(C)CC(=O)N1[C@@H]3c1ccc2c(c1)OCO2 (racemic) [Example 2, (trans)-6-(1,3-Benzodioxol-5-yl)-10-methoxy-2-methyl-2,3,6,7,12,12a-hexahydropyrazino[1′,2′:1,6]pyrido[3,4-b]indole-1,4-dione]
3 | 6 | 198 to 208 | CN1CC(=O)N2[C@H](c3ccc4c(c3)OCO4)c3[nH]c4cc(-c5ccccc5)ccc4c3C[C@@H]2C1=O (racemic) [Example 4, (+−, cis)-6-Benzo[1,3]dioxol-5-yl-2-methyl-9-phenyl-2,3,6,7,12,12a-hexahydropyrazino[1′,2′:1,6]pyrido[3,4-b]indole-1,4-dione]
4 | 288 | 294 to 295 | COC(=O)c1ccc2c3c([nH]c2c1)[C@@H](c1ccc2c(c1)OCO2)N1C(=O)CN(C)C(=O)[C@H]1C3 (racemic) [Example 5, (+−, cis)-6-Benzo[1,3]dioxol-5-yl-2-methyl-1,4-dioxo-1,2,3,6,7,12,12a-octahydropyrazino[1′,2′:1,6]pyrido[3,4-b]indole-9-carboxylic acid methyl ester]
5 | 151 | 246 to 252 | CN1CC(=O)N2[C@H](c3ccc4c(c3)OCO4)c3[nH]c4cc(C(=O)O)ccc4c3C[C@H]2C1=O (racemic) [Example 6, (+−,trans)-6-Benzo[1,3]dioxol-5-yl-2-methyl-1,4-dioxo-1,2,3,4,6,7,12,12a-octahydropyrazino[1′,2′:1,6]pyrido[3,4-b]indole-9-carobxylic acid]
6 | 7 | 329 to 331 | CN1CC(=O)N2[C@H](c3ccc4c(c3)OCO4)c3[nH]c4cc(C#N)ccc4c3C[C@@H]2C1=O (racemic) [Example 7, (+−, cis)-6-Benzo[1,3]dioxol-5-yl-2-methyl-1,4-dioxo-1,2,3,4,6,7,12,12a-octahydropyrazino[1′,2′:1,6]pyrido[3,4-b]indole-9-carbonitrile]
7 | 37 | 150 to 161 | CN1CC(=O)N2[C@H](c3ccc4c(c3)OCO4)c3[nH]c4c(OCc5ccccc5)cccc4c3C[C@@H]2C1=O (racemic) [Example 8, (+−, cis)-6-Benzo[1,3]dioxol-5-yl-8-benzyloxy-2-methyl-2,3,6,7,12,12a-hexahydropyrazino[1′2′:1,6]pyrido[3,4-b]indole-1,4-dione]
8 | 1.2 | 288 to 293 | COc1ccc2c3c([nH]c2c1)[C@@H](c1ccc2c(c1)OCO2)N1C(=O)CN(C)C(=O)[C@H]1C3 [Example 3, (6R,12aR)-6-Benzo[1,3]dioxol-5-yl-9-methoxy-2-methyl-2,3,6,7,12,12a-hexahydropyrazino-[1′,2′:1,6]pyrido[3,4-b]indole-1,4-dione]
